{"source": "ChEMBL document CHEMBL5154782", "about": "“Discovery of Potent PROTACs Targeting EGFR Mutants through the Optimization of Covalent EGFR Ligands” (J Med Chem, 2022)", "key": {"[1]": {"system": "von Hippel-Lindau disease tumor suppressor/Epidermal growth factor receptor (Homo sapiens), P00533+P40337 [UNDEFINED MUTATION]", "experiment": "Protac activity at VHL/EGFR/deletion19 in human HCC827 cells assessed as induction of EGFR degradation at 1 to 30 nM incubated for 24 hrs by Western blot analysis", "type": "cell-based", "conditions": "dose 1-30 nM"}, "HCC827": {"system": "HCC827", "experiment": "Antiproliferative activity against human HCC827 cells expressing EGFR deletion19 mutant assessed as inhibition of cell proliferation incubated for 72 hrs by MTT assay", "type": "functional, cell-based", "conditions": "HCC827, 72 h"}, "NCI-H1975 [2]": {"system": "NCI-H1975", "experiment": "Antiproliferative activity against human NCI-H1975 cells expressing EGFR L858R/T790M mutant assessed as inhibition of cell proliferation incubated for 72 hrs by MTT assay", "type": "functional, cell-based", "conditions": "NCI-H1975, 72 h"}, "[3]": {"system": "Protein cereblon/Epidermal growth factor receptor (Homo sapiens), P00533+Q96SW2 [L858R,T790M,C797S]", "experiment": "Protac activity at CRBN/EGFR L858R/T790M/C797S mutant in mouse BaF3 cells assessed as induction of EGFR degradation at 100 nM", "type": "cell-based"}, "[4]": {"system": "Protein cereblon/Epidermal growth factor receptor (Homo sapiens), P00533+Q96SW2 [L858R,T790M]", "experiment": "Protac activity at CRBN/EGFR L858R/T790M mutant in mouse BaF3 cells assessed as induction of EGFR degradation at 100 nM", "type": "cell-based"}, "[5]": {"target": "T1, von Hippel-Lindau disease tumor suppressor/Epidermal growth factor receptor (Homo sapiens, UniProt P00533+P40337)", "experiment": "Protac activity at VHL/EGFR deletion19 mutant in human HCC827 cells assessed as induction of EGFR degradation under starvation condition", "type": "cell-based"}, "[6]": {"target": "von Hippel-Lindau disease tumor suppressor/Epidermal growth factor receptor (Homo sapiens, UniProt P00533+P40337, T790M/L858R)", "experiment": "Protac activity at VHL/EGFR L858R/T790M mutant in human NCI-H1975 cells assessed as induction of EGFR degradation", "type": "cell-based"}, "[7]": {"target": "T1, von Hippel-Lindau disease tumor suppressor/Epidermal growth factor receptor", "experiment": "Protac activity at VHL/EGFR deletion19 mutant in human PC9 cells assessed as induction of EGFR degradation", "type": "cell-based", "conditions": "pc-9"}, "NCI-H1975 [8]": {"system": "NCI-H1975", "experiment": "Antiproliferative activity against human NCI-H1975 cells expressing EGFR L858R/T790M mutant assessed as inhibition of cell proliferation", "type": "functional, cell-based"}}, "note": "The source made the active and inactive calls. The calls are words filed in the database; no cut-off is given here."}
{"smiles": "CCC(=O)N1CCC[C@H](n2c(Nc3ccccc3)nc3cnc(Nc4ccc(N5CCN(CCCCCCCC(=O)N[C@H](C(=O)N6C[C@H](O)C[C@H]6C(=O)N[C@@H](C)c6ccc(-c7scnc7C)cc6)C(C)(C)C)CC5)cc4)nc32)C1", "values": [{"measurement": "Activity", "setting": "[1]", "value": "Active"}, {"measurement": "IC50", "setting": "HCC827", "value": 0.00539, "unit": "µM"}, {"measurement": "IC50", "setting": "NCI-H1975 [2]", "value": 2.9, "unit": "µM"}]}
{"smiles": "O=C1CCC(N2C(=O)c3cccc(NCCOCCOCCOCCN4CCN(c5ccc(-c6ccc7c(c6)C(=O)N(C(C(=O)Nc6nccs6)c6ccccc6)C7)cn5)CC4)c3C2=O)C(=O)N1", "note": "(centres undefined)", "values": [{"measurement": "Activity", "setting": "[3]", "value": 74, "unit": "%"}, {"measurement": "Activity", "setting": "[4]", "value": 59, "unit": "%"}]}
{"smiles": "COc1cc2ncnc(Nc3ccc(F)c(Cl)c3)c2cc1OCCCN1CCN(C(=O)CCCCCCCCCC(=O)N[C@H](C(=O)N2C[C@H](O)C[C@H]2C(=O)NCc2ccc(-c3scnc3C)cc2)C(C)(C)C)CC1", "values": [{"measurement": "DC50", "setting": "[5]", "value": 0.005, "unit": "µM"}]}
{"smiles": "C=CC(=O)Nc1cc2c(Nc3ccc(F)c(Cl)c3)ncnc2cc1OCCCN1CCN(C(=O)CCCCCCNc2cccc3c2C(=O)N(C2CCC(=O)NC2=O)C3=O)CC1", "note": "(centres undefined)", "values": [{"measurement": "DC50", "setting": "[6]", "value": "< 0.03", "unit": "µM"}, {"measurement": "DC50", "setting": "[7]", "value": 0.1, "unit": "µM"}, {"measurement": "IC50", "setting": "NCI-H1975 [8]", "value": 0.0265, "unit": "µM"}]}
